# Assay results reported in PubChem BioAssay AID1963844 (Molecular Pharmacology Branch, DTP, NCI, 2024).
# System: 422866-222-R5-J1-PDC complex spheroid viability
# Test: Anticancer human tumor 422866-222-R5-J1-PDC patient-derived pancreatic adenocarcinoma cell line growth inhibition [POLQ]
# Settings: for IC50: curve of first compound; for viability, T/C: stronger effect = lower value
# Procedure, shortened: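 PDC + HUVEC + MSC complex spheroids; POLQ inhibitors ± partner drugs; top conc. at/near clinical Cmax, else 10 microM (SN-38 1 microM), half-log dilutions; 37 degrees C, 5% CO2.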
# [1] = second compound 0.0316 µM, first compound 0.0316 µM
# [2] = second compound 0.0316 µM, first compound 0.1 µM
# [3] = second compound 0.0316 µM, first compound 0.316 µM
# [4] = second compound 0.0316 µM, first compound 1 µM
# [5] = second compound 0.1 µM, first compound 0.0316 µM
# [6] = second compound 0.1 µM, first compound 0.1 µM
# [7] = second compound 0.1 µM, first compound 0.316 µM
# [8] = second compound 0.1 µM, first compound 1 µM
# [9] = second compound 0.316 µM, first compound 0.0316 µM
# [10] = second compound 0.316 µM, first compound 0.1 µM
# [11] = second compound 0.316 µM, first compound 0.316 µM
# [12] = second compound 0.316 µM, first compound 1 µM
# [13] = second compound 1 µM, first compound 0.0316 µM
# [14] = second compound 1 µM, first compound 0.1 µM
# [15] = second compound 1 µM, first compound 0.316 µM
# [16] = second compound 1 µM, first compound 1 µM
# [17] = second compound 3.16 µM, first compound 0.0316 µM
# [18] = second compound 3.16 µM, first compound 0.1 µM
# [19] = second compound 3.16 µM, first compound 0.316 µM
# [20] = second compound 3.16 µM, first compound 1 µM
# [21] = second compound 10 µM, first compound 0.0316 µM
# [22] = second compound 10 µM, first compound 0.1 µM
# [23] = second compound 10 µM, first compound 0.316 µM
# [24] = second compound 10 µM, first compound 1 µM
# [25] = second compound 0.0316 µM, first compound 3.16 µM
# [26] = second compound 0.0316 µM, first compound 10 µM
# [27] = second compound 0.1 µM, first compound 3.16 µM
# [28] = second compound 0.1 µM, first compound 10 µM
# [29] = second compound 0.316 µM, first compound 3.16 µM
# [30] = second compound 0.316 µM, first compound 10 µM
# [31] = second compound 1 µM, first compound 3.16 µM
# [32] = second compound 1 µM, first compound 10 µM
# [33] = second compound 3.16 µM, first compound 3.16 µM
# [34] = second compound 3.16 µM, first compound 10 µM
# [35] = second compound 10 µM, first compound 3.16 µM
# [36] = second compound 10 µM, first compound 10 µM
# 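Note: spheroids exposed to compounds for one week before readout.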
# 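Throughout, for viability, T/C: percent of DMSO vehicle wells luminescence so 100% = untreated viability.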
compound,measurement,setting,value
C=CCn1c(=O)c2cnc(Nc3ccc(N4CCN(C)CC4)cc3)nc2n1-c1cccc(C(C)(C)O)n1 + Cc1cccc(N(C)C(=O)C2C(O)CCN2c2nc(C)cc(C(F)(F)F)c2C#N)c1,IC50,second compound 0.0316 µM,298 nM
same,IC50,second compound 0.1 µM,289 nM
same,IC50,second compound 0.316 µM,299 nM
same,IC50,second compound 1 µM,257 nM
same,IC50,second compound 3.16 µM,423 nM
same,IC50,second compound 10 µM,277 nM
same,"viability, T/C","second compound 0.0316 µM, first compound 0.00316 µM",107%
same,"viability, T/C","second compound 0.0316 µM, first compound 0.01 µM",96.1%
same,"viability, T/C",[1],110%
same,"viability, T/C",[2],89.1%
same,"viability, T/C",[3],48.4%
same,"viability, T/C",[4],33.3%
same,"viability, T/C","second compound 0.1 µM, first compound 0.00316 µM",93%
same,"viability, T/C","second compound 0.1 µM, first compound 0.01 µM",93.8%
same,"viability, T/C",[5],101%
same,"viability, T/C",[6],85.8%
same,"viability, T/C",[7],47.1%
same,"viability, T/C",[8],35.1%
same,"viability, T/C","second compound 0.316 µM, first compound 0.00316 µM",108%
same,"viability, T/C","second compound 0.316 µM, first compound 0.01 µM",97.3%
same,"viability, T/C",[9],105%
same,"viability, T/C",[10],97.1%
same,"viability, T/C",[11],47.5%
same,"viability, T/C",[12],31.3%
same,"viability, T/C","second compound 1 µM, first compound 0.00316 µM",110%
same,"viability, T/C","second compound 1 µM, first compound 0.01 µM",85.1%
same,"viability, T/C",[13],104%
same,"viability, T/C",[14],83.8%
same,"viability, T/C",[15],42.8%
same,"viability, T/C",[16],32.3%
same,"viability, T/C","second compound 3.16 µM, first compound 0.00316 µM",98.4%
same,"viability, T/C","second compound 3.16 µM, first compound 0.01 µM",87.2%
same,"viability, T/C",[17],91.6%
same,"viability, T/C",[18],100%
same,"viability, T/C",[19],54.8%
same,"viability, T/C",[20],35.7%
same,"viability, T/C","second compound 10 µM, first compound 0.00316 µM",104%
same,"viability, T/C","second compound 10 µM, first compound 0.01 µM",95.8%
same,"viability, T/C",[21],97.3%
same,"viability, T/C",[22],75.3%
same,"viability, T/C",[23],46.6%
same,"viability, T/C",[24],40.4%
CC1COCCN1c1cc(-c2ccnn2C)c2ccnc(-c3ccn[nH]3)c2n1 (stereo unspecified) + Cc1cccc(N(C)C(=O)C2C(O)CCN2c2nc(C)cc(C(F)(F)F)c2C#N)c1,IC50,second compound 0.0316 µM,31.6 nM
same,IC50,second compound 0.1 µM,> 10000 nM
same,IC50,second compound 0.316 µM,> 10000 nM
same,IC50,second compound 1 µM,> 10000 nM
same,IC50,second compound 3.16 µM,31.6 nM
same,IC50,second compound 10 µM,31.6 nM
same,"viability, T/C",[1],82.3%
same,"viability, T/C",[2],55.7%
same,"viability, T/C",[3],49.3%
same,"viability, T/C",[4],37.8%
same,"viability, T/C",[25],72.3%
same,"viability, T/C",[26],83.1%
same,"viability, T/C",[5],87%
same,"viability, T/C",[6],55.3%
same,"viability, T/C",[7],49.1%
same,"viability, T/C",[8],44.5%
same,"viability, T/C",[27],65.4%
same,"viability, T/C",[28],73%
same,"viability, T/C",[9],91.8%
same,"viability, T/C",[10],59.6%
same,"viability, T/C",[11],43.9%
same,"viability, T/C",[12],38.6%
same,"viability, T/C",[29],62.4%
same,"viability, T/C",[30],79.8%
same,"viability, T/C",[13],77.5%
same,"viability, T/C",[14],73.6%
same,"viability, T/C",[15],34%
same,"viability, T/C",[16],42.5%
same,"viability, T/C",[31],73.7%
same,"viability, T/C",[32],73.7%
same,"viability, T/C",[17],75.7%
same,"viability, T/C",[18],55.8%
same,"viability, T/C",[19],49.5%
same,"viability, T/C",[20],43.7%
same,"viability, T/C",[33],74.3%
same,"viability, T/C",[34],85%
same,"viability, T/C",[21],74.3%
same,"viability, T/C",[22],58.2%
same,"viability, T/C",[23],46.7%
same,"viability, T/C",[24],36.5%
same,"viability, T/C",[35],70.3%
same,"viability, T/C",[36],94.8%
CC1COCCN1c1cc(C2(S(C)(=N)=O)CC2)nc(-c2ccnc3[nH]ccc23)n1 (stereo unspecified) + Cc1cccc(N(C)C(=O)C2C(O)CCN2c2nc(C)cc(C(F)(F)F)c2C#N)c1,IC50,second compound 0.0316 µM,> 10000 nM
same,IC50,second compound 0.1 µM,2930 nM
same,IC50,second compound 0.316 µM,3360 nM
same,IC50,second compound 1 µM,4210 nM
same,IC50,second compound 3.16 µM,5460 nM
same,IC50,second compound 10 µM,4410 nM
same,"viability, T/C",[1],92.5%
same,"viability, T/C",[2],93.2%
same,"viability, T/C",[3],98.9%
same,"viability, T/C",[4],70.1%
same,"viability, T/C",[25],50.9%
same,"viability, T/C",[26],50.5%
same,"viability, T/C",[5],101%
same,"viability, T/C",[6],121%
same,"viability, T/C",[7],98.9%
same,"viability, T/C",[8],74.4%
same,"viability, T/C",[27],45.8%
same,"viability, T/C",[28],46.3%
same,"viability, T/C",[9],110%
same,"viability, T/C",[10],110%
same,"viability, T/C",[11],90.3%
same,"viability, T/C",[12],83.2%
same,"viability, T/C",[29],47.1%
same,"viability, T/C",[30],33.8%
same,"viability, T/C",[13],108%
same,"viability, T/C",[14],97.6%
same,"viability, T/C",[15],91.5%
same,"viability, T/C",[16],76.8%
same,"viability, T/C",[31],47.5%
same,"viability, T/C",[32],45.8%
same,"viability, T/C",[17],103%
same,"viability, T/C",[18],103%
same,"viability, T/C",[19],90.6%
same,"viability, T/C",[20],73.8%
same,"viability, T/C",[33],60.4%
same,"viability, T/C",[34],40.3%
same,"viability, T/C",[21],100%
same,"viability, T/C",[22],82%
same,"viability, T/C",[23],93.1%
same,"viability, T/C",[24],59.2%
same,"viability, T/C",[35],59.5%
same,"viability, T/C",[36],37.4%
